Assay results taken from US7045307B2, “Method for measuring no synthase activity” (Gruenenthal GmbH, priority 2000, dated 2006).

Assays:
[1] = biological target: T1, isolated nNOS from rat cerebella (Rattus norvegicus, UniProt P29476); experiment: Arginine assay according to the invention (HTS NOS assay, cation exchanger filter MTP)
[2] = biological target: T1, isolated nNOS from rat cerebella; experiment: Citrulline assay according to Bredt and Snyder (1990), separation by column chromatography; format: biochemical; conditions: [3H]arginine 50 nM
From the text: On completion of the reaction the enzyme mixtures are passed over separate cation exchange columns. Elution of the [^3H]L-citrulline and determination of the eluates then takes place on a β-counter. The disadvantage of this method is that column chromatography has to take place separately for each enzyme mixture (e.g. 96 chromatography columns are needed per 96 well microtiter plate).
The precipitate is discarded.
The separation was effected by means of column chromatography.

Row | Compound | inhibition at 10 µM ([1]; read-out: NOS inhibition) [%] | IC50 [2] [µM] | IC50 ([1]; read-out: IC50 value, Arginine assay according to the invention as in Example 4, [3H]arginine 50 nM, nNOS from rat cerebella, 96 well cation exchanger filter MTP) [µM] | IC50 [1] [µM]
1 | O=[N+]([O-])c1cccc2cn[nH]c12 [7-Nitroindazole, 7-nitroindazole] | ~50 |  |  | 
2 | FC(F)(F)c1ccccc1-n1ccnc1 [TRIM, 1-(2-trifluormethylphenyl)imidazole] |  | > 100 | > 100 | 
3 | C=CCC(=N)NCCC[C@H](N)C(=O)O [Vinyl L-NIO, N5-(1-imino-3-butenyl)-L-ornithine] |  | 5.57 |  | 5.02
